# Measurements: patent publication US11613556B2, “Oxysterols and methods of use thereof” (Sage Therapeutics, Inc., priority 2016, dated 2023)
# Read-outs that look alike come from different tables or passages of the source.
# Experiments:
# Format in all cases: cell-based
# [1] = biological target: GluN2B glutamate receptors expressed in mammalian cells (Homo sapiens (Human), UniProt Q05586+Q13224); assay: Whole-cell patch clamp of mammalian cells (Ionworks Barracuda), positive allosteric modulation, GluN2B; conditions: for Emax: read-out: GluN2B PCA EMax (%)
# GluN2B glutamate receptors expressed in mammalian cells, sequence (Q13224 27-1484, other chains not shown): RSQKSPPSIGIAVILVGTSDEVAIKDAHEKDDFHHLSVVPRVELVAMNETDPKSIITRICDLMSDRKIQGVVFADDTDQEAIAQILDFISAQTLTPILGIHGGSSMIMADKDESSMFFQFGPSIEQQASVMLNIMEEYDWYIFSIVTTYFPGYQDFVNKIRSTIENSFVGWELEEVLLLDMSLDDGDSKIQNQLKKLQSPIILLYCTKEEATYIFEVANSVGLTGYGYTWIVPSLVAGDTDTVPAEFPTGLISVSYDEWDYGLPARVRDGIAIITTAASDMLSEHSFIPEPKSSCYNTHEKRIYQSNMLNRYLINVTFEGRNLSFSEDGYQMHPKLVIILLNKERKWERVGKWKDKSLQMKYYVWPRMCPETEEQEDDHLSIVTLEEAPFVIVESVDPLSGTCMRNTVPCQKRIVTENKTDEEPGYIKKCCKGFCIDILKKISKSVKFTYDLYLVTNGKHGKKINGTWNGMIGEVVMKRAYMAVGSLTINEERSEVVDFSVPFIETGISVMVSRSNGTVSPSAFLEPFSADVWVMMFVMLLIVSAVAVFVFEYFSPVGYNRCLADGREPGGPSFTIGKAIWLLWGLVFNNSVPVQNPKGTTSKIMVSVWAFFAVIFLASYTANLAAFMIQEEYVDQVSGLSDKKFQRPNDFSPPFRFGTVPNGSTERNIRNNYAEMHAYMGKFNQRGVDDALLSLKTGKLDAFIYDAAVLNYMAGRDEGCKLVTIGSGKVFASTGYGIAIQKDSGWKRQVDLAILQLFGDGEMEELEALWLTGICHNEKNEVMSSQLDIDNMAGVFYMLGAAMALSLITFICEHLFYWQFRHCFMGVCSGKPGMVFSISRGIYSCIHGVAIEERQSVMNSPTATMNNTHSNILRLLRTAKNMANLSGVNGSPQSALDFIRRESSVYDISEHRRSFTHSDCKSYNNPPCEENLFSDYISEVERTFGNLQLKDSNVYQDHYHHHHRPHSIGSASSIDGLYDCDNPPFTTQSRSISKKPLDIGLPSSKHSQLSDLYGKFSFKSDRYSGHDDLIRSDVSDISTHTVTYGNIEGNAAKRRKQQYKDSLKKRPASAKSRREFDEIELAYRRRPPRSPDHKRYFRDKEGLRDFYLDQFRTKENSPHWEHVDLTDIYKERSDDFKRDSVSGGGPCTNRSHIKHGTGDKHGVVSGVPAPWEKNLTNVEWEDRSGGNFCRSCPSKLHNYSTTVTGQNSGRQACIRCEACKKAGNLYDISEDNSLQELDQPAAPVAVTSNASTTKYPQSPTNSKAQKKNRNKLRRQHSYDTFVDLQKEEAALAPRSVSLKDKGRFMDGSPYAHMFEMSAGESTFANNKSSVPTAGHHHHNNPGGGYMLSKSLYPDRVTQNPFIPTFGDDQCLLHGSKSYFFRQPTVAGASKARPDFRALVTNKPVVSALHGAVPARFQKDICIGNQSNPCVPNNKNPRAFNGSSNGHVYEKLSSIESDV
# Method: (§1) NMDA potentiation in mammalian cells which expressed NMDA receptors was assessed using the automatic patch-clamp system can be used determine the NAM activity of compounds as described below. An whole cell patch-clamp system can be used determine the PAM activity of compounds as described below.
# (§2) The measurements were performed using Ion Works Barracuda platform following this procedure:
# (§3) Electrophysiological Procedures: • a) Intracellular solution (mM): 50 mM CsCl, 90 mM CsF, 2 mM MgCl2, 5 mM EGTA, 10 mM HEPES. Adjust to pH 7.2 with CsOH. • b) Extracellular solution, HB-PS (composition in mM): NaCl, 137; KCl, 1.0; CaCl2, 5; HEPES, 10; Glucose, 10; pH adjusted to 7.4 with NaOH (refrigerated until use). • c) Holding potential: −70 mV, potential during agonist/PAM application: −40 mV.
# (§4) Recording Procedure: • a) Extracellular buffer will be loaded into the PPC plate wells (11 μL per well). Cell suspension will be pipetted into the wells (9 μL per well) of the PPC planar electrode. • b) Whole-cell recording configuration will be established via patch perforation with membrane currents recorded by on-board patch clamp amplifiers. • c) Two recordings (scans) will be performed. First, during pre-application of test article alone (duration of pre-application—5 min) and second, during test articles and agonist (EC20 L-glutamate and 30 μM glycine) co-application to detect positive modulatory effects of the test article.
# (§5) Test Article Administration: The first pre-application will consist of the addition of 20 μL of 2× concentrated test article solution and, second, of 20 μL of 1× concentrated test article and agonist at 10 μL/s (2 second total application time).
# (§6) Potentiating Effect of Positive Allosteric Modulators (PAM) on the Channel
# (§7) The maximal amplitude of the evoked currents are measured and defined as Peak Current Amplitude (PCA).
# [2] = biological target: glutamate-activated channels of the GRIN1/2A subtype stably transfected in HEK 293 cells (Homo sapiens (Human), UniProt Q05586+Q12879); assay: Automated patch-clamp system (QPatch HTX), percent potentiation at 1 μM; conditions: HEK293, 1 μM test compound, 300 μM NMDA with 8 μM glycine, HEK 293 GRIN1/2A, read-out: GluN2A PCA % potentiation at 1 μM
# glutamate-activated channels of the GRIN1/2A subtype stably transfected in HEK 293 cells, sequence (Q12879 whole entry, looked up, other chains not shown): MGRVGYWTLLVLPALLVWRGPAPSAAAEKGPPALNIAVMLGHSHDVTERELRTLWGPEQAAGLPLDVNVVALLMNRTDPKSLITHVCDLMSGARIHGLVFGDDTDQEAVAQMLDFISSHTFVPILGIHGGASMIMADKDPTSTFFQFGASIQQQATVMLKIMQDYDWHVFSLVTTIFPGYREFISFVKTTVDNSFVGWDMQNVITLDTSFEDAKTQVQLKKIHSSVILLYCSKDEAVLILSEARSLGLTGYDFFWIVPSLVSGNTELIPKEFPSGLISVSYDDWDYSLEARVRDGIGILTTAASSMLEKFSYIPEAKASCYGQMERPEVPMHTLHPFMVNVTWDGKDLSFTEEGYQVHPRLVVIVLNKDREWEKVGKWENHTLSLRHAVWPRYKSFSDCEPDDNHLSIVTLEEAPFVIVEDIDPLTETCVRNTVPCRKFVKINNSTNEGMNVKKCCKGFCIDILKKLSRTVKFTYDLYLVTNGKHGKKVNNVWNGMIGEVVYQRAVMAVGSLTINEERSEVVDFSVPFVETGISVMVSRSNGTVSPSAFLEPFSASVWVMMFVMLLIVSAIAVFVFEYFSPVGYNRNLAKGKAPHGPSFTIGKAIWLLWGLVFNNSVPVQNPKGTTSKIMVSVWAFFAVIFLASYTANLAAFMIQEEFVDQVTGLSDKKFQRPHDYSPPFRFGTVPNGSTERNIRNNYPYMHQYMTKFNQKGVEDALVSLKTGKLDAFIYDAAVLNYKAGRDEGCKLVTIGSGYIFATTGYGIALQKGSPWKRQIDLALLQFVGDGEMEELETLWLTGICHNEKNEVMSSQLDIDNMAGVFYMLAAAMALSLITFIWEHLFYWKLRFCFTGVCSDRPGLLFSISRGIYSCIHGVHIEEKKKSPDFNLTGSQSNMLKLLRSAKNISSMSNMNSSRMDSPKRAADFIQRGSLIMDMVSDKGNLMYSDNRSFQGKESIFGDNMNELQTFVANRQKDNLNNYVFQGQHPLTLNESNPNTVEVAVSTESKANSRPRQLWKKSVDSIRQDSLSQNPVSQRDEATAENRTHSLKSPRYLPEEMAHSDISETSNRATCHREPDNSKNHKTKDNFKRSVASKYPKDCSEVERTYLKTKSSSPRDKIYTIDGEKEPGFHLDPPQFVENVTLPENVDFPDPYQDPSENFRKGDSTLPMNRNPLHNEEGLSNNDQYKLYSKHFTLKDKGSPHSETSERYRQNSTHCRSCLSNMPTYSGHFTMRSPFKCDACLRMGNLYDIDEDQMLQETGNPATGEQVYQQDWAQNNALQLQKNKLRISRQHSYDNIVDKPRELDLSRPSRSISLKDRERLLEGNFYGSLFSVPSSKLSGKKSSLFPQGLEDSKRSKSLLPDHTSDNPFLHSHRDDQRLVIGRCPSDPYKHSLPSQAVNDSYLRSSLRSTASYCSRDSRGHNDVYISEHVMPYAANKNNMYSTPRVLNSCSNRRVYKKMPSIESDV
# Procedure, shortened: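 Tetracycline-induced HEK 293 cells stably expressing human GRIN1/2A were whole-cell recorded on QPatch HTX in Mg-free bath solution at pH 7.4. Compound at 1.0 μM (0.1% DMSO) was co-applied with submaximal 300 μM NMDA plus 8 μM glycine, and percent potentiation was recorded.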
# [3] = biological target: GluN1/GluN2A glutamate receptors (human GRIN1/GRIN2A) expressed in HEK293 cells (Homo sapiens (Human), UniProt Q05586+Q12879); assay: Whole-cell patch clamp of mammalian cells (Ionworks Barracuda), positive allosteric modulation, GluN1/GluN2A; conditions: for Emax: read-out: GluN2A PCA EMax (%)
# GluN1/GluN2A glutamate receptors (human GRIN1/GRIN2A) expressed in HEK293 cells, sequence (Q12879 whole entry, looked up, other chains not shown): as above
# Method: as §1, §2, §3, §4, §5, §6, §7
# [4] = peak current amplitude, co-application with EC20 L-glutamate and 30 μM glycine, read-out: GluN2B PCA EC50
# [5] = peak current amplitude, co-application with EC20 L-glutamate and 30 μM glycine
# [6] = peak current amplitude, co-application with EC20 L-glutamate and 30 μM glycine, HEK293
# [7] = peak current amplitude, co-application with EC20 L-glutamate and 30 μM glycine, HEK293, read-out: GluN2A PCA EC50
SMILES,"EC50 [1, 4] [nM]","Emax [1, 5] [%]",activation at 1 µM [2] [%],EC50 [3] [nM],"Emax [3, 6] [%]",EC50 [1] [nM],Emax [1] [%],"EC50 [3, 7] [nM]"
"CCC[C@H](O)[C@@H](C)[C@H]1CC[C@H]2[C@@H]3CC[C@@H]4C[C@](O)(CC)CC[C@]4(C)[C@H]3CC[C@]12C [Compound 23, (3S,5R,8R,9S,10S,13S,14S,17R)-3-ethyl-17-((2S,3S)-3-hydroxyhexan-2-yl)-10,13-dimethylhexadecahydro-1H-cyclopenta[a]phenanthren-3-ol]",> 1000,100 to 500,-40 to -10,> 1000,< 100,–,–,–
"CC[C@]1(O)CC[C@@]2(C)[C@@H](CC[C@@H]3[C@@H]2CC[C@]2(C)[C@@H]([C@H](C)[C@H](O)CC4CCCC4)CC[C@@H]32)C1 [Compound 84, (3S,5S,8R,9S,10S,13S,14S,17R)-17-((2S,3R)-4-cyclopentyl-3-hydroxybutan-2-yl)-3-ethyl-10,13-dimethylhexadecahydro-1H-cyclopenta[a]phenanthren-3-ol]",> 1000,< 100,-10 to 10,> 1000,< 100,–,–,–
"CC[C@]1(O)CC[C@@]2(C)[C@@H](CC[C@@H]3[C@@H]2CC[C@]2(C)[C@@H]([C@H](C)[C@@H](O)CC4CCCC4)CC[C@@H]32)C1 [Compound 98, (3S,5S,8R,9S,10S,13S,14S,17R)-17-((2S,3S)-4-cyclopentyl-3-hydroxybutan-2-yl)-3-ethyl-10,13-dimethylhexadecahydro-1H-cyclopenta[a]phenanthren-3-ol]",> 1000,< 100,-40 to -10,> 1000,< 100,–,–,–
"CC[C@]1(O)CC[C@@]2(C)C(=CC[C@H]3[C@@H]4CC[C@H]([C@H](C)[C@H](O)CC5CCC(C)(C)CC5)[C@@]4(C)CC[C@@H]32)C1 [Compound 12, (3S,8S,9S,10R,13S,14S,17R)-17-((2S,3R)-4-(4,4-dimethylcyclohexyl)-3-hydroxybutan-2-yl)-3-ethyl-10,13-dimethyl-2,3,4,7,8,9,10,11,12,13,14,15,16,17-tetradecahydro-1H-cyclopenta[a]phenanthren-3-ol]",> 1000,< 100,-10 to 10,> 1000,< 100,–,–,–
"CC[C@]1(O)CC[C@@]2(C)[C@H](CC[C@@H]3[C@@H]2CC[C@]2(C)[C@@H]([C@H](C)[C@@H](O)CC4CCC(C)(C)CC4)CC[C@@H]32)C1 [Compound 59, (3S,5R,8R,9S,10S,13S,14S,17R)-17-((2S,3S)-4-(4,4-dimethylcyclohexyl)-3-hydroxybutan-2-yl)-3-ethyl-10,13-dimethylhexadecahydro-1H-cyclopenta[a]phenanthren-3-ol]",–,–,< -40,–,< 100,> 1000,< 100,> 1000
"CC[C@]1(O)CC[C@@]2(C)[C@H](CC[C@@H]3[C@@H]2CC[C@]2(C)[C@@H]([C@H](C)[C@H](O)CCC(C)C)CC[C@@H]32)C1 [Compound 96, (3S,5R,8R,9S,10S,13S,14S,17R)-3-ethyl-17-((2S,3R)-3-hydroxy-6-methylheptan-2-yl)-10,13-dimethylhexadecahydro-1H-cyclopenta[a]phenanthren-3-ol]",–,–,-10 to 10,–,< 100,> 1000,< 100,100 to 1000
"CCC[C@H](O)[C@@H](C)[C@H]1CC[C@H]2[C@@H]3CC=C4C[C@](O)(CC)CC[C@]4(C)[C@H]3CC[C@]12C [Compound 72, (3S,8S,9S,10R,13S,14S,17R)-3-ethyl-17-((2S,3S)-3-hydroxyhexan-2-yl)-10,13-dimethyl-2,3,4,7,8,9,10,11,12,13,14,15,16,17-tetradecahydro-1H-cyclopenta[a]phenanthren-3-ol]",> 1000,< 100,-40 to -10,> 1000,< 100,–,–,–
"CC(C)CC[C@H](O)[C@@H](C)[C@H]1CC[C@H]2[C@@H]3CC[C@H]4C[C@@](C)(O)CC[C@]4(C)[C@H]3CC[C@]12C [Compound 8, (3S,5S,8R,9S,10S,13S,14S,17R)-17-((2S,3S)-3-hydroxy-6-methylheptan-2-yl)-3,10,13-trimethylhexadecahydro-1H-cyclopenta[a]phenanthren-3-ol]",> 1000,< 100,< -40,> 1000,< 100,–,–,–
"CC[C@]1(O)CC[C@@]2(C)[C@H](CC[C@@H]3[C@@H]2CC[C@]2(C)[C@@H]([C@H](C)[C@H](O)CC4CCC(C)(C)CC4)CC[C@@H]32)C1 [Compound 87, (3S,5R,8R,9S,10S,13S,14S,17R)-17-((2S,3R)-4-(4,4-dimethylcyclohexyl)-3-hydroxybutan-2-yl)-3-ethyl-10,13-dimethylhexadecahydro-1H-cyclopenta[a]phenanthren-3-ol]",–,–,-10 to 10,–,< 100,> 1000,< 100,> 1000
"CC[C@]1(O)CC[C@@]2(C)C(=CC[C@H]3[C@@H]4CC[C@H]([C@H](C)[C@@H](O)CCC5CC5)[C@@]4(C)CC[C@@H]32)C1 [Compound 69, (3S,8S,9S,10R,13S,14S,17R)-17-((2S,3S)-5-cyclopropyl-3-hydroxypentan-2-yl)-3-ethyl-10,13-dimethyl-2,3,4,7,8,9,10,11,12,13,14,15,16,17-tetradecahydro-1H-cyclopenta[a]phenanthren-3-ol]",> 1000,< 100,-10 to 10,> 1000,< 100,–,–,–
"CC[C@]1(O)CC[C@H]2[C@@H](CC[C@@H]3[C@@H]2CC[C@]2(C)[C@@H]([C@H](C)[C@H](O)CCC(C)C)CC[C@@H]32)C1 [Compound 40, (3S,5S,8R,9R,10S,13S,14S,17R)-3-ethyl-17-((2S,3R)-3-hydroxy-6-methylheptan-2-yl)-13-methylhexadecahydro-1H-cyclopenta[a]phenanthren-3-ol]",> 1000,100 to 500,-10 to 10,> 1000,< 100,–,–,–
"CC[C@]1(O)CC[C@@]2(C)C(=CC[C@H]3[C@@H]4CC[C@H]([C@H](C)[C@H](O)CC5CCCC5)[C@@]4(C)CC[C@@H]32)C1 [Compound 46, (3S,8S,9S,10R,13S,14S,17R)-17-((2S,3R)-4-cyclopentyl-3-hydroxybutan-2-yl)-3-ethyl-10,13-dimethyl-2,3,4,7,8,9,10,11,12,13,14,15,16,17-tetradecahydro-1H-cyclopenta[a]phenanthren-3-ol]",> 1000,< 100,-40 to -10,> 1000,< 100,–,–,–
"CC[C@]1(O)CC[C@@]2(C)[C@@H](CC[C@@H]3[C@@H]2CC[C@]2(C)[C@@H]([C@H](C)[C@@H](O)CC4CCC(C)(C)CC4)CC[C@@H]32)C1 [Compound 4, (3S,5S,8R,9S,10S,13S,14S,17R)-17-((2S,3S)-4-(4,4-dimethylcyclohexyl)-3-hydroxybutan-2-yl)-3-ethyl-10,13-dimethylhexadecahydro-1H-cyclopenta[a]phenanthren-3-ol]",–,–,< -40,–,< 100,> 1000,< 100,1 to 100
"CC[C@]1(O)CC[C@@]2(C)[C@H](CC[C@@H]3[C@@H]2CC[C@]2(C)[C@@H]([C@H](C)[C@@H](O)CC4CCCC4)CC[C@@H]32)C1 [Compound 94, (3S,5R,8R,9S,10S,13S,14S,17R)-17-((2S,3S)-4-cyclopentyl-3-hydroxybutan-2-yl)-3-ethyl-10,13-dimethylhexadecahydro-1H-cyclopenta[a]phenanthren-3-ol]",> 1000,< 100,-40 to -10,> 1000,< 100,–,–,–
